Test results as given in patent US6569878B1, “Substituted 4-amino-thiazol-2-yl compounds as cyclin-dependent kinase inhibitors” (Agouron Pharmaceuticals Inc., priority 1997, dated 2003).
Where two headings read alike, the source gives them in different places.

What was measured:
[1] = target: T1, complex of cyclin D1 and a fusion protein of human CDK4 and glutathione-S-transferase (GST-CDK4) (Homo sapiens, UniProt P11802); experiment: Inhibition of CDK4/cyclin D retinoblastoma kinase activity (D-type cyclin is D1); assay type: biochemical; settings: superscript b: D-type cyclin is D1, read-out: Ki CDK 4/D
T1 construct: made in house; host or cells: insect cells, co-infected with baculovirus
Procedure: Cyclin-dependent kinase activity was measured by quantifying the enzyme-catalyzed, time-dependent incorporation of radioactive phosphate from [^32P]ATP or [^33P]ATP into a protein substrate. Unless noted otherwise, assays were performed in 96-well plates in a total volume of 50 μL, in the presence of 10 mM HEPES (N-[2-hydroxyethyl]piperazine-N′-[2-ethanesulfonic acid]) (pH 7.4), 10 mM MgCl2, 25 μM adenosine triphosphate (ATP), 1 mg/mL ovalbumin, 5 μg/mL leupeptin, 1 mM dithiothreitol, 10 mM β-glycerophosphate, 0.1 mM sodium vanadate, 1 mM sodium fluoride, 2.5 mM ethylene glycol-bis(β-aminoethyl ether)-N,N,N′N′-tetraacetic acid (EGTA), 2% (v/v) dimethylsulfoxide, and 0.03-0.4 μCi [^32/33P]ATP per reaction. Reactions were initiated with enzyme, incubated at 30° C., and terminated after 20 minutes by the addition of ethylenediaminetetraacetic acid (EDTA) to 250 mM. The phosphorylated substrate was then captured on a nitrocellulose or phosphocellulose membrane using a 96-well filtration manifold, and unincorporated radioactivity was removed by repeated washing with 0.85% phosphoric acid. Radioactivity was quantified by exposing the dried membranes to a phosphorimager.
Apparent Ki values were measured by assaying enzyme activity in the presence of different inhibitor compound concentrations and subtracting the background radioactivity measured in the absence of enzyme. The kinetic parameters (kcat, Km for ATP) were measured for each enzyme under the usual assay conditions by determining the dependence of initial rates on ATP concentration. Inhibition data were fit to an equation for competitive inhibition using Kaleidagraph (Synergy Software), or were fit to an equation for competitive tight-binding inhibition using the software KineTic (BioKin, Ltd.).
A complex of human CDK4 and cyclin D3, or a complex of cyclin D1 and a fusion protein of human CDK4 and gluathione-S-transferase (GST-CDK4), or a complex of human CDK4 and genetically truncated (1-264) cyclin D3, was purified using traditional biochemical chromatographic techniques from insect cells that had been co-infected with the corresponding baculovirus expression vectors (see e.g., Meijer and Kim, “Chemical Inhibitors of Cyclin-Dependent Kinases,” Methods in Enzymol,. vol. 283 (1997), pp. 113-128.). The enzyme complex (5 or 50 nM) was assayed with 0.3-0.5 μg of purified recombinant retinoblastoma protein fragment (Rb) as a substrate. The engineered Rb fragment (residues 386-928 of the native retinoblastoma protein; 62.3 kDa) contains the majority of the phosphorylation sites found in the native 106-kDa protein, as well as a tag of six histidine residues for ease of purification. Phosphorylated Rb substrate was captured by microfiltration on a nitrocellulose membrane and quantified using a phosphorimager as described above. For measurement of tight-binding inhibitors, the enzyme complex concentration was lowered to 5 nM, and the assay duration was extended to 60 minutes, during which the time-dependence of product formation was linear.

[2] = target: T2, complex of human CDK4 and cyclin D3 (Homo sapiens, UniProt P11802); experiment: Inhibition of CDK4/cyclin D retinoblastoma kinase activity (D-type cyclin is D3); assay type: biochemical; settings: superscript a: D-type cyclin is D3, read-out: Ki CDK 4/D
T2 construct: made in house; host or cells: insect cells, co-infected with baculovirus
Method in brief: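 Apparent Ki derived by fitting background-corrected activity to competitive (or, for tight binders, competitive tight-binding) equations with measured ATP Km. Rb phosphorylation by radiolabelled ATP was measured at 30°C, 20 min standard or 60 min at 5 nM complex for tight binders, via nitrocellulose capture and phosphorimager.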

[3] = tested on: HCT116; experiment: Inhibition of cell growth, MTT assay, HCT116; assay type: cell-based, human; settings: Homo sapiens, HCT-116
Method in brief: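 Cells rested 4 h after plating, then exposed to graded compound concentrations in 0.5% (v/v) DMSO for four to six days (cell-type dependent) at 37° C, 5% CO2. Viability was read by MTT (0.2 mg/mL final, 4 h at 37° C), with DMSO-solubilized formazan measured at 540 nm.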

[4] = tested on: SW-480; experiment: Inhibition of cell growth, MTT assay, SW-480; assay type: cell-based; settings: Homo sapiens, SW480; SW-480, MTT assay
Procedure: Inhibition of cell growth was measured using the tetrazolium salt assay, which is based on the ability of viable cells to reduce 3-(4,5-dimethylthiazol-2-yl)-2,5-[2H]-diphenyltetrazolium bromide (MTT) to formazan (Mossman, Journal of Immunological Methods, vol. 65 (1983), pp. 55-58). The water-insoluble purple formazan product was then detected spectrophotometrically. Various cell lines (HCT-116, Saos-2, U2-OS, SW480, COLO-205, RXF-393, M14, MDA-MB-468, and MCF7) were grown in 96-well plates. Cells were plated in the appropriate medium at a volume of 135 μl/well in either McCoy's 5A Medium (for Saos-2, U2-OS, SW480, and HCT-116 cells), RPMI (for COLO-205, RXF-393, M14 cells), or Minimum Essential Medium Eagle (for MDA-MB-468 and MCF7 cells). Plates were incubated for four hours before addition of inhibitor compounds. Different concentrations of inhibitor compounds were added in 0.5% (v/v) dimethylsulfoxide (15 μL/well), and cells were incubated at 37° C. (5% CO2) for four to six days (depending on cell type). At the end of the incubation, MTT was added to a final concentration of 0.2 mg/mL, and cells were incubated for 4 hours more at 37° C. After centrifugation of the plates and removal of medium, the absorbance of the formazan (solubilized in dimethylsulfoxide) was measured at 540 nm. […] All results were compared to control cells treated only with 0.5% (v/v) dimethylsulfoxide.

[5] = target: T3, CDK2/cyclin A (Homo sapiens, UniProt P24941); experiment: Inhibition of CDK2/cyclin A retinoblastoma kinase activity; assay type: biochemical; settings: read-out: Ki CDK 2/A
T3 construct: made in house; host or cells: CDK2: insect cells (baculovirus); cyclin A: E. coli, then limited proteolysis
Method in brief: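 Baculovirus-expressed CDK2 with excess proteolyzed cyclin A (or purified complex), 150 nM or 5 nM, phosphorylating an Rb fragment with 25 μM [32/33P]ATP, pH 7.4, 30° C, 20 min. Filter-captured radioactivity by phosphorimager; apparent Ki from fits to competitive or tight-binding competitive inhibition using measured ATP Km.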

[6] = target: T4, human CDK1 (cdc2) and cyclin B (Homo sapiens, UniProt P06493); experiment: Inhibition of CDK1(cdc2)/cyclin B histone H1 kinase activity; assay type: biochemical; settings: read-out: Ki CDK 1/B
T4 construct: purchased New England Biolabs (Beverly Mass.)
Method in brief: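 CDK1/cyclin B (commercial, or CDK1/GST-cyclin B1 from co-infected insect cells) phosphorylated histone H1 with 25 μM [32/33P]ATP at pH 7.4, 30° C for 20 min, 2% DMSO. Product captured on phosphocellulose and read by phosphorimager; apparent Ki from competitive or tight-binding fits, with Km for ATP determined.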

T1 sequence (P11802 whole entry, the tested form may be a part): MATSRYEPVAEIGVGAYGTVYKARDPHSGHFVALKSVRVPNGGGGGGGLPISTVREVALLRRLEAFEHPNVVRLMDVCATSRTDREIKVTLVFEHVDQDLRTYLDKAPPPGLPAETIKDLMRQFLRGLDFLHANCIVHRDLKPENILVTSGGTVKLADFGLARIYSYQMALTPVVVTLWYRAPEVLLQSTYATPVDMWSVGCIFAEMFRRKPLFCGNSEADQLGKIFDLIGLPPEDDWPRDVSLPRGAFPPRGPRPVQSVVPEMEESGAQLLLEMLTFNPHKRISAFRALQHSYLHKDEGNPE
T1 sequence (P24385 whole entry partner, the tested form may be a part): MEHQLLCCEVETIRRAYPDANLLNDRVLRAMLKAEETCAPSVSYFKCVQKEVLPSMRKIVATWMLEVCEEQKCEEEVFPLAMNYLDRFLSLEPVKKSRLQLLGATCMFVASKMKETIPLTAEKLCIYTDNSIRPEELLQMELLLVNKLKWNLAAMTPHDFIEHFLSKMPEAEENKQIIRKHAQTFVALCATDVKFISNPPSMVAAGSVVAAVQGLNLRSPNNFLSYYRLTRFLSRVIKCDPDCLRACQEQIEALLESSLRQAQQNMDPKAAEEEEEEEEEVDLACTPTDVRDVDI
T2 sequence (P11802 whole entry): as the sequence (P11802 whole entry, the tested form may be a part) above
T2 sequence (P30281 whole entry partner): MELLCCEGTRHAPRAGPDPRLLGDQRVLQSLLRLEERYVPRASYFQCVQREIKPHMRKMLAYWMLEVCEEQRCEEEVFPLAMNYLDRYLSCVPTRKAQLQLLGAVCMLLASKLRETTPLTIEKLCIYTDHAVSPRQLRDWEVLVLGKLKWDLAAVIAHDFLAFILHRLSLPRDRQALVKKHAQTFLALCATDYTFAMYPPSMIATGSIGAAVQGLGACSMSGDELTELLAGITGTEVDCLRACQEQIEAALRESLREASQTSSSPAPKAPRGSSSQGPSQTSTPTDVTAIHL
T4 sequence (P06493 whole entry): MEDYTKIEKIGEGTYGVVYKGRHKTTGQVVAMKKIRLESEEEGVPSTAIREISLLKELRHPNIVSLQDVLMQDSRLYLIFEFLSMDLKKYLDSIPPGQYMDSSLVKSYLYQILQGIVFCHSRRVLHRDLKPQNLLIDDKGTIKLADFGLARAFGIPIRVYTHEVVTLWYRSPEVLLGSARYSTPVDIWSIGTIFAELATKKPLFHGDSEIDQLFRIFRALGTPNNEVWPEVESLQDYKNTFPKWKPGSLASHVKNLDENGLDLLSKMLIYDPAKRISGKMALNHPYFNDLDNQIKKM
T4 sequence (P14635 whole entry partner): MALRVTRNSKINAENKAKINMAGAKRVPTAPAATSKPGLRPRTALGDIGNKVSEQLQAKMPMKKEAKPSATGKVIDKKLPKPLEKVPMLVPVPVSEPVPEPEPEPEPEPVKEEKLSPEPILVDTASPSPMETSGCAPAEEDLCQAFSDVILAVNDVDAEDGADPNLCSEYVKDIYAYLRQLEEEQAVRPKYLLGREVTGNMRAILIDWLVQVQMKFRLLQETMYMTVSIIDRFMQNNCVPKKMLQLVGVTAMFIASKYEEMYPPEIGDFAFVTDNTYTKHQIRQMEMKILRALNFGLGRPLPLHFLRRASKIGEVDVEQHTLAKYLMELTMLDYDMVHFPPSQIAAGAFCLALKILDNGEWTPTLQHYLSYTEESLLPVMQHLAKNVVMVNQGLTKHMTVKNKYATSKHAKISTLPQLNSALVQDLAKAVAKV

| SMILES | Ki [1] | Ki ([2]; apparent Ki) | Ki [5] | Ki [6] | Ki ([1]; μM) | also measured |
| --- | --- | --- | --- | --- | --- | --- |
| Nc1nc(Nc2ccccc2)sc1C(=O)c1cccc([N+](=O)[O-])c1 [A(1), (4-Amino-2-phenylamino-thiazol-5-yl)-(3-nitrophenyl)-methanone] | 0.77 µM | 0.66 µM | 1.2 µM |  |  | IC50 [3]: 2500 nM; IC90 [3]: 10000 nM; IC50 [4]: 4000 nM; IC90 [4]: 9000 nM |
| Nc1nc(Nc2ccccc2)sc1C(=O)c1ccccc1 [I(1)*] | 0.102 µM | 0.64 µM | 0.46 µM | 500 nM |  |  |
| CC(=O)c1sc(NCc2ccccc2)nc1N [I(3)*] |  |  |  |  | > 100 µM | Ki ([2]; μM): > 5 µM |
| Nc1cccc(C(=O)c2sc(Nc3ccccc3)nc2N)c1 [D(1), (3-Amino-phenyl)-(4-amino-2-phenylamino-thiazol-5-yl)-methanone] | 0.49 µM |  | 0.9 µM |  |  |  |
| CCNc1nc(N)c(C(=O)c2ccccc2)s1 [I(5)*] | 0.87 µM | 1.1 µM | 4.6 µM | 4500 nM |  |  |
| Nc1nc(Nc2ccccc2)sc1C(=O)C1CC1 [I(4)*] |  |  |  | 3900 nM | 3.1 µM | Ki ([5]; μM): 4.3 µM |
| CC(=O)c1sc(Nc2ccccc2)nc1N [I(2)*] |  | 8 µM | 8.7 µM |  | ~30 µM |  |
